Test results from patent US8697081B2, “Method of modulating neovascularization” (The Regents of the University of Michigan, priority 2008, dated 2014).

Assays:
[1] = tested on: Human umbilical vein endothelial cells; assay: VEGF/HGF-triggered vasculogenesis in 3-D fibrin gel, or growth in 2-D culture; assay type: cell-based; conditions: for growth of VEGF/HGF-stimulated endothelial cells: 2-D culture atop fibrin gels; for elongation, proliferation and neovessel formation: 3-D fibrin gel
From the text: (§1) At sites of tissue damage, inflammation or neoplasia, fibrinogen is converted into a 3-D meshwork of fibrin fibrils that serve as a structural support for endothelial cells undergoing neovascularization (Chun et al. 2006. Cell, 125: 577-591; Hiraoka et al. 1998. Cell, 95: 365-377; Schafer and Werner. 2008. Nat. Rev. Mol. Cell Biol., 9: 628-638; Zhou et al. 2008. Genes Dev., 22: 1231-1243). This process can be recapitulated in vitro by embedding serum-supplemented human endothelial cells within a 3-D fibrin gel in the presence of the pro-angiogenic factors, VEGF and HGF. Human umbilical vein endothelial cells were isolated from umbilical cords by perfusion of the umbilical vein with type 3 collagenase (Worthington, Lakewood, N.J.) and cultured in Medium-199 (Invitrogen, Carlsbad, Calif.) with 20% human serum and 50 μg/ml endothelial cell growth supplement (ECGS; BD Biosciences, Franklin Lakes, N.J.). For 3-D culture, endothelial cells were suspended in a solution of thrombin and aprotinin (Sigma, St. Louis, Mo.) and mixed 1:1 with a solution of 6 mg/ml fibrinogen (Calbiochem, Gibbstown, N.J.). Vasculogenesis was triggered by treatment with 100 ng/ml VEGF, 50 ng/ml HGF (Genentech, San Francisco, Calif.). Fibronectin fibrillogenesis was tracked in 3-D by co-culture with human fibronectin (Sigma) labeled with Alexa-594 (Invitrogen).
In the presence of VEGF and HGF, endothelial cells i) underwent marked changes in cell morphology from spherical to elongated, ii) mobilized proteinases which degrade the surrounding fibrin, iii) assembled a pericellular meshwork of fibronectin fibrils, and iv) initiated proliferative and tubulogenic responses that result in the formation of an anastomosing network of neovessels over a 6 day culture period (Hiraoka, supra; Saunders et al., 2006. J Cell Biol. 175: 179-191; Zhou et al., 2008. Proc. Natl. Acad. Sci. USA, 97: 4052-4057). […] Cell, 125: 757-767; Saunders et al., supra; Tomasini-Johansson et al., 2001. J. Biol. Chem., 276: 23430-23439; Zhou et al, supra). Endothelial cells cultured atop—rather than embedded within—fibrin gels (herein referred to as 2-D culture) display distinct growth requirements from those observed in 3-D culture.
Taken together, cytoskeletal reorganization and contractile tension may serve as the biomechanical effectors that transmit structural and mechanical cues from the pericellular ECM to the nuclear envelope. VEGF/HGF-stimulated endothelial cells were treated with either (a) blebbistatin to inhibit myosin ATPase function, or (b) nocodazole to prevent microtubule assembly under 3-D culture conditions (Salpingidou et al., 2007. J. Cell Biol., 178: 897-904; Zhou et al., supra).

[2] = tested on: Human umbilical vein endothelial cells; assay: Nuclear architecture (GFP-lamin A, emerin) and nuclear pore complex (NUP153) distribution; assay type: cell-based; conditions: for nuclear architecture: 2-D conditions; for nuclear shape / redistribution of nuclear pore complexes: 3-D fibrin gel
From the text: as §1
As the 3-D-specific requirements for MT-MMPs and fibronectin matrix assembly correlate with changes in endothelial cell morphology, efforts were initiated to identify mechanistic routes whereby cell shape changes impact cell function. In particular, the impact of ECM remodeling on nuclear architecture was investigated. Nuclear architecture was tracked by either transfecting cells with a GFP-tagged form of the nuclear matrix filament, lamin A, or by immunostaining for the integral nuclear membrane protein, emerin (Dahl et al., 2008. Circ. Res., 102: 1307-1318; Glynn and Glover, 2005. Hum. Mol. Genet., 14: 2959-2969; Starr, 2009. J. Cell Sci., 122: 577-586; Stewart et al., 2007. Science, 318: 1408-1412). Under 2-D conditions, endothelial cell nuclei assumed an ellipsoid shape when cultured atop fibrin gels in the absence or presence of VEGF/HGF. In marked contrast, under 3-D conditions, endothelial cells cultured within fibrin gels in the absence of VEGF/HGF unexpectedly display a distorted morphology with multiple lamin A matrix and emerin infoldings and surface irregularities. Upon addition of VEGF/HGF, however, the nuclei of fibrin-embedded endothelial cells undergo a dramatic, and 3-D-specific, remodeling to assume a more classic, ovoid morphology. Three-dimensional reconstructions of DAPI-stained nuclei confirm that nuclear architecture transitions between multi-lobed and smooth elliptical shapes in the absence or presence, respectively, of VEGF/HGF.
Nuclear matrix architecture controls the distribution of the nuclear pore complexes that regulate the trafficking of protein and RNA across the nuclear envelope (Goldman et al., 2004. Proc. Natl. Acad. Sci. USA, 101: 8963-8968; Hawryluk-Gara et al., 2005. Mol. Biol. Cell, 16: 2382-2394; Liu et al., 2007. J. Cell. Biol., 178: 785-798). As such, the localization of nuclear pores was assessed in intact cells by monitoring the localization of the component protein, NUP153. In 3-D culture, unstimulated endothelial cells accumulate NUP153-containing pore complexes at nuclear membrane invaginations. In contrast, the nuclei of VEGF/HGF-stimulated endothelial cells display a uniform distribution of pore complexes in nuclear membranes.
To determine the roles of MMP-dependent proteolysis and fibronectin matrix assembly in mediating nuclear shape and nuclear pore complex changes, fibrin-embedded endothelial cells were stimulated with VEGF/HGF in the presence of FUD or GM6001. […]

[3] = 3-D culture, VEGF/HGF-stimulated, blebbistatin or nocodazole

| Compound | growth of VEGF/HGF-stimulated endothelial cells [1] | elongation, proliferation and neovessel formation ([1]; VEGF/HGF-stimulated) | nuclear architecture [2] | TUNEL staining with formation of multi-lobed nuclei ([2]; 3-D culture) | nuclear shape ([2]; VEGF/HGF-stimulated) | redistribution of nuclear pore complexes ([2]; VEGF/HGF-stimulated) | endothelial cell 3-D tubulogenesis [1, 3] | nuclear shape and nuclear pore distribution [2, 3] |
| --- | --- | --- | --- | --- | --- | --- | --- | --- |
| CNC(=O)[C@H](Cc1c[nH]c2ccccc12)NC(=O)[C@@H](CC(=O)NO)CC(C)C [GM6001] | neither GM6001 nor FUD affect the growth | failed to elongate, proliferate or form neovessels | unaffected | does not correlate with increased TUNEL staining | locked endothelial cell nuclei into the multi-lobular conformation | completely failed to redistribute | – | – |
| Cc1ccc2c(c1)C(=O)C1(O)CCN(c3ccccc3)C1=N2 (centres unmarked) [blebbistatin] | – | – | – | – | – | – | completely inhibit | multi-lobed nuclei with perturbations in nuclear pore distribution |
| FUD: 49-residue functional upstream domain of Streptococcus pyogenes F1 adhesion protein, SEQ ID NO: 10; fibronectin fibril assembly inhibitor (KDQSPLAGESGETEYITEVYGNQQNPVDIDKKLPNETGFSGNMVETEDT; Streptococcus pyogenes; Functional Upstream Domain (FUD) of F1 adhesion protein) | neither GM6001 nor FUD affect the growth | failed to elongate, proliferate or form neovessels | unaffected | does not correlate with increased TUNEL staining | locked endothelial cell nuclei into the multi-lobular conformation | completely failed to redistribute | – | – |
